Measured values as given in patent US20220168319A1, “COMBINED USE OF A-NOR-5alpha ANDROSTANE COMPOUND DRUG AND ANTICANCER DRUG” (SHANGHAI AO QI MEDICAL TECHNOLOGY CO., LTD., priority 2019, published 2022).
Read-outs that look alike come from different tables or passages of the source.

Key:
[1] = test system: human liver cancer QGY-7703; type: in vivo, nude mice; conditions: ip × 7 qd; for Tumor Inhibition rate %: counted by tumor weight
Protocol: (§1) ACP Administration Group: oral doses were 5, 2.5 and 1.25 mg/kg; oral administration twice a day (with an interval of about 6 hours) for 14 days.
(§2) ACP+Adriamycin or Cyclophosphamide Administration Group: oral doses of ACP were 5, 2.5 and 1.25 mg/kg; oral administration twice a day (with an interval of about 6 hours) for 14 days. Adriamycin lmg/kg or Cyclophosphamide 15 mg/kg were administered intraperitoneally 10 min after the first ACP administration for 7 consecutive days.
(§3) Positive Control Group: Adriamycin 2 mg/kg/time or cyclophosphamide 30 mg/kg/time were administered intraperitoneally once a day for 7 days.
(§4) Negative Control Group: the same volume of solvent as the experimental group was administered, and the administration scheme was the same as that of the experimental group.
(§5) Human tumor cell lines cryopstored in liquid nitrogen were cultured at 37° C. and 5% CO2 after resuscitation. After subculture, the cells in logarithmic growth period were taken and prepared into cell suspension of about (1-2)×10^7 Cell/ml, and inoculated subcutaneously in the right axilla of nude mice 0.2 ml/mice. Under aseptic conditions, tumor tissues of the second or later generations of human tumors liver cancer QGY-7703, pancreatic cancer PANC-1, and lung cancer A549 xenograft models with vigorous growth in vivo, were taken and cut into uniform pieces with the size of 1-2 mm3, and one piece was subcutaneously inoculated in the right axilla of each naked mouse with trocar. The mouse were randomly divided into groups till the tumors inoculated grow to more than 100 mm^3 and administered according to the experimental design scheme.
(§6) After administration, the tumor size was dynamically observed and tested, and the body weight of tumor-bearing mice was weighed. The short diameter (a) and long diameter (b) of the tumor of the naked mouse were measured with calipers every 3 days, and the tumor volume was calculated according to the formula of (a^2×b)/2. The relative tumor volume (RTV) was calculated from the measured and calculated tumor volume, RTV=Vt/V0. Wherein, Vo is the tumor volume at random grouping (i.e., d0), and Vt is the tumor volume at each measurement (i.e., dn). The animals in each group were sacrificed at about three weeks, and the tumor volume was measured, dissected and weighed. The relative tumor proliferation rate and tumor inhibition rate were calculated according to the following formula: […]

[2] = test system: pancreatic cancer tissue from patients; experiment: Efficacy of ACP combined with gemcitabine in pancreatic cancer SuperPDTX mice model; type: in vivo, NCG mice; conditions: ACP 5 mg/kg p.o. Bid*7, Gemcitabine 30 mg/kg i.p. BIW
Excerpt: (§7) Mice: NCG (NOD-Prkdcem26I12rgem26Nju), Institute of Biomedical Research, Nanjing University
Pancreatic cancer tissue mass were the P2 generation samples of cryopreserved collected from mice after inoculation of the samples from patients with pancreatic cancer, and the samples used in this experiment were P3 generation samples after passage.
(§8) Pancreatic cancer samples were inoculated in the tested mice, and the size of inoculated tissue was 1*1*4mm^3. On the day of inoculation, mice were randomly divided into 4 experimental groups with 6 mice in each group and 4 mice in each cage. The day of grouping was defined as Day 0. The mice were administered according to the experimental protocol for 7 days, and sampled within 24 hours after the end of administration. 24h after the last administration, the experiment was ended, the mice were sacrificed, the tumor was removed, the surrounding connective tissue and muscle tissue were removed under the microscope, and stored in 10% formaldehyde.

[3] = test system: liver cancer tissue from patients; experiment: Efficacy of ACP combined with oxaliplatin or sorafenib in liver cancer SuperPDTX mice model; type: in vivo, NCG mice; conditions: pathology after 7 days; ACP 5 mg/kg p.o. Bid*7, Sorafenib 60 mg/kg p.o. Qd*7, Oxaliplatin 6 mg/kg i.p. Biw*1
Excerpt: as §7
as §8, with “Liver cancer tissue mass were the P1 generation samples of cryopreserved collected from mice after inoculation of the samples from patients with liver cancer, and the samples used in this experiment were P2 generation samples after passage. Liver cancer” for “Pancreatic cancer”, “was 1*1*4 mm^3.” for “was 1*1*4mm^3.”, “into 6” for “into 4”, “administration. 24 h” for “administration. 24h”

[4] = test system: human pancreatic cancer PANC-1; experiment: Human pancreatic cancer PANC-1 xenograft transplantation model in nude mice; type: in vivo; conditions: ip × 7 qd; for Tumor Inhibition rate %: counted by tumor weight
Protocol: as §1, §2, §3, §4, §5, §6

human lung cancer A549 = experiment: Human lung cancer A549 xenograft transplantation model in nude mice; type: in vivo; conditions: ip × 7 qd; for Tumor Inhibition rate %: counted by tumor weight
Protocol: as §1, §2, §3, §4, §5, §6

With `O=P1(N(CCCl)CCCl)NCCCO1` (stereo not shown) [Cyclophosphamide, cyclophosphamide] the “Tumor weight (gram) x ± SD” value ([1]; 15 mg/kg) was 1.010 ± 0.19 gram, the “Tumor Inhibition rate %” value ([1]; 15 mg/kg) was 36.88% and the “Tumor weight (gram) x ± SD” value ([1]; 30 mg/kg) was 0.197 ± 0.04 gram. For the same compound, the “Tumor Inhibition rate %” value ([1]; 30 mg/kg) was 87.69%.

With `Nc1ccn([C@@H]2O[C@H](CO)[C@@H](O)C2(F)F)c(=O)n1` [Gemcitabine, gemcitabine] the “Tumor Ki67 Mean” value ([2]; immunohistochemistry after 7 days) was 23.33 ± 5.16, the Heterotypic Degree ([2]; pathology after 7 days) was “Moderate” and the “Proportion of tumor necrosis TCNR Mean” value ([2]; pathology after 7 days) was 0.00 ± 0.00. The “Tumor component Mean” value ([2]; pathology after 7 days) was 55.00 ± 18.71.

In the case of `O=C1[O][Pt]2([NH][C@@H]3CCCC[C@H]3[NH]2)[O]C1=O` [Oxaliplatin, oxaliplatin], the “Heterotypic Degree” value [3] was “Severe”, the “Proportion of tumor necrosis TCNR Mean” value [3] was 16.67 ± 8.76% and the “Tumor component Mean” value [3] was 53.33 ± 15.1%.

With `CNC(=O)c1cc(Oc2ccc(NC(=O)Nc3ccc(Cl)c(C(F)(F)F)c3)cc2)ccn1` [Sorafenib, sorafenib] the “Heterotypic Degree” value [3] was “Severe”, the “Proportion of tumor necrosis TCNR Mean” value [3] was 18.33 ± 7.52% and the “Tumor component Mean” value [3] was 58.33 ± 24.8%.

`COc1cccc2c1C(=O)c1c(O)c3c(c(O)c1C2=O)C[C@@](O)(C(=O)CO)C[C@@H]3O[C@H]1C[C@H](N)[C@H](O)[C@H](C)O1` [adriamycin] was tested, and the “Tumor weight (gram) x ± SD” value ([4]; 1 mg/kg) was 0.668 ± 0.09 gram, the “Tumor Inhibition rate %” value ([4]; 1 mg/kg) was 34.51% and the “Tumor weight (gram) x ± SD” value ([4]; 2 mg/kg) was 0.265 ± 0.06 gram. For the same compound, the “Tumor Inhibition rate %” value ([4]; 2 mg/kg) was 74.02%, the “Tumor weight (gram) x ± SD” value (human lung cancer A549; 1 mg/kg) was 0.843 ± 0.08 gram and the “Tumor Inhibition rate %” value (human lung cancer A549; 1 mg/kg) was 42.26%. The “Tumor weight (gram) x ± SD” value (human lung cancer A549; 2 mg/kg) was 0.198 ± 0.04 gram and the “Tumor Inhibition rate %” value (human lung cancer A549; 2 mg/kg) was 86.30%.
